# Marks after values point to notes of the source that are not given here.
# Tests used:
# Type in all cases: in vivo
# Septoria nodorum = experiment: Test E: Septoria glume blotch, spray on wheat seedlings the day before inoculation
# Description: General protocol for preparing test suspensions for Tests A-I: the test compounds were first dissolved in acetone in an amount equal to 3% of the final volume and then suspended at the desired concentration (in ppm) in acetone and purified water (50/50 mix by volume) containing 250 ppm of the surfactant Trem® 014 (polyhydric alcohol esters). The resulting test suspensions were then used in Tests A-I. Spraying a 200 ppm test suspension to the point of run-off on the test plants was the equivalent of a rate of 500 g/ha. […] (An asterisk “*” next to the rating value indicates a 40 ppm test suspension was used.) The test suspension was sprayed to the point of run-off on wheat seedlings. […] A dash (-) indicates no test results. All results are for 200 ppm except where followed by an asterisk “*”, which indicates a 40 ppm.
# Botrytis cinerea = experiment: Test A: tomato Botrytis, spray on tomato seedlings the day before inoculation
# Description: General protocol for preparing test suspensions for Tests A-I: the test compounds were first dissolved in acetone in an amount equal to 3% of the final volume and then suspended at the desired concentration (in ppm) in acetone and purified water (50/50 mix by volume) containing 250 ppm of the surfactant Trem® 014 (polyhydric alcohol esters). The resulting test suspensions were then used in Tests A-I. Spraying a 200 ppm test suspension to the point of run-off on the test plants was the equivalent of a rate of 500 g/ha. […] (An asterisk “*” next to the rating value indicates a 40 ppm test suspension was used.) The test suspension was sprayed to the point of run-off on tomato seedlings. The following day, the seedlings were inoculated with a spore suspension of Botrytis cinerea (the causal agent of tomato Botrytis) and incubated in a saturated atmosphere at 20° C. for 48 h, and then moved to a growth chamber at 24° C. for 3 additional days, after which time visual disease ratings were made. […] A dash (-) indicates no test results. All results are for 200 ppm except where followed by an asterisk “*”, which indicates a 40 ppm.
# Alternaria solani = experiment: Test B: tomato early blight, spray on tomato seedlings the day before inoculation
# Description: General protocol for preparing test suspensions for Tests A-I: the test compounds were first dissolved in acetone in an amount equal to 3% of the final volume and then suspended at the desired concentration (in ppm) in acetone and purified water (50/50 mix by volume) containing 250 ppm of the surfactant Trem® 014 (polyhydric alcohol esters). The resulting test suspensions were then used in Tests A-I. Spraying a 200 ppm test suspension to the point of run-off on the test plants was the equivalent of a rate of 500 g/ha. […] (An asterisk “*” next to the rating value indicates a 40 ppm test suspension was used.) The test suspension was sprayed to the point of run-off on tomato seedlings. The following day, the seedlings were inoculated with a spore suspension of Alternaria solani (the causal agent of tomato early blight) and incubated in a saturated atmosphere at 27° C. for 48 h, and then moved to a growth chamber at 20° C. for 5 days, after which time visual disease ratings were made. […] A dash (-) indicates no test results. All results are for 200 ppm except where followed by an asterisk “*”, which indicates a 40 ppm.
# [1] = test system: Erysiphe graminis f. sp. tritici; experiment: Test I: wheat powdery mildew, spray on wheat seedlings the day before inoculation
# Description: General protocol for preparing test suspensions for Tests A-I: the test compounds were first dissolved in acetone in an amount equal to 3% of the final volume and then suspended at the desired concentration (in ppm) in acetone and purified water (50/50 mix by volume) containing 250 ppm of the surfactant Trem® 014 (polyhydric alcohol esters). The resulting test suspensions were then used in Tests A-I. Spraying a 200 ppm test suspension to the point of run-off on the test plants was the equivalent of a rate of 500 g/ha. […] (An asterisk “*” next to the rating value indicates a 40 ppm test suspension was used.) The test suspension was sprayed to the point of run-off on wheat seedlings. The following day, the seedlings were inoculated with a spore dust of Erysiphe graminis f. sp. tritici, (the causal agent of wheat powdery mildew) and incubated in a growth chamber at 20° C. for 7 days, after which time visual disease ratings were made. […] A dash (-) indicates no test results. All results are for 200 ppm except where followed by an asterisk “*”, which indicates a 40 ppm.
# [2] = test system: Puccinia recondita f. sp. tritici; experiment: Test H: wheat leaf rust, spray on wheat seedlings the day before inoculation; settings: sprayed before inoculation
# Description: General protocol for preparing test suspensions for Tests A-I: the test compounds were first dissolved in acetone in an amount equal to 3% of the final volume and then suspended at the desired concentration (in ppm) in acetone and purified water (50/50 mix by volume) containing 250 ppm of the surfactant Trem® 014 (polyhydric alcohol esters). The resulting test suspensions were then used in Tests A-I. Spraying a 200 ppm test suspension to the point of run-off on the test plants was the equivalent of a rate of 500 g/ha. […] (An asterisk “*” next to the rating value indicates a 40 ppm test suspension was used.) The test suspension was sprayed to the point of run-off on wheat seedlings. The following day, the seedlings were inoculated with a spore suspension of Puccinia recondita f. sp. tritici (the causal agent of wheat leaf rust) and incubated in a saturated atmosphere at 20° C. for 24 h, and then moved to a growth chamber at 20° C. for 6 days, after which time visual disease ratings were made Results for Tests A-I are given in Table A. […] A dash (-) indicates no test results. All results are for 200 ppm except where followed by an asterisk “*”, which indicates a 40 ppm.
# [3] = test system: Puccinia recondita f. sp. tritici; experiment: Test G: wheat leaf rust, spray on wheat seedlings after inoculation (curative); settings: sprayed after inoculation
# Description: General protocol for preparing test suspensions for Tests A-I: the test compounds were first dissolved in acetone in an amount equal to 3% of the final volume and then suspended at the desired concentration (in ppm) in acetone and purified water (50/50 mix by volume) containing 250 ppm of the surfactant Trem® 014 (polyhydric alcohol esters). The resulting test suspensions were then used in Tests A-I. Spraying a 200 ppm test suspension to the point of run-off on the test plants was the equivalent of a rate of 500 g/ha. […] (An asterisk “*” next to the rating value indicates a 40 ppm test suspension was used.) Wheat seedlings were inoculated with a spore suspension of Puccinia recondita f. sp. tritici (the causal agent of wheat leaf rust) and incubated in a saturated atmosphere at 20° C. for 24 h, and then moved to a growth chamber at 20° C. for 2 days. At the end of this time, the test suspension was sprayed to the point of run-off, and then the seedlings were moved to a growth chamber at 20° C. for 4 days after which time visual disease ratings were made. […] A dash (-) indicates no test results. All results are for 200 ppm except where followed by an asterisk “*”, which indicates a 40 ppm.
# Septoria tritici = experiment: Test F: wheat leaf blotch, spray on wheat seedlings the day before inoculation
# Description: General protocol for preparing test suspensions for Tests A-I: the test compounds were first dissolved in acetone in an amount equal to 3% of the final volume and then suspended at the desired concentration (in ppm) in acetone and purified water (50/50 mix by volume) containing 250 ppm of the surfactant Trem® 014 (polyhydric alcohol esters). The resulting test suspensions were then used in Tests A-I. Spraying a 200 ppm test suspension to the point of run-off on the test plants was the equivalent of a rate of 500 g/ha. […] (An asterisk “*” next to the rating value indicates a 40 ppm test suspension was used.) The test suspension was sprayed to the point of run-off on wheat seedlings. The following day, the seedlings were inoculated with a spore suspension of Septoria tritici (the causal agent of wheat leaf blotch) and incubated in a saturated atmosphere at 24° C. for 48 h, and then the seedlings were moved to a growth chamber at 20° C. for 19 additional days, after which time visual disease ratings were made. […] A dash (-) indicates no test results. All results are for 200 ppm except where followed by an asterisk “*”, which indicates a 40 ppm.
# [4] = 40 ppm test suspension (asterisk)
Structure (SMILES),"Test E rating (100 = 100% disease control, 0 = no disease control) (Septoria nodorum; 200 ppm test suspension)","Test A rating (100 = 100% disease control, 0 = no disease control) (Botrytis cinerea; 200 ppm test suspension)","Test B rating (100 = 100% disease control, 0 = no disease control) (Alternaria solani; 200 ppm test suspension)","Test I rating (100 = 100% disease control, 0 = no disease control) ([1]; 200 ppm test suspension)","Test H rating (100 = 100% disease control, 0 = no disease control) ([2]; 200 ppm test suspension)","Test G rating (100 = 100% disease control, 0 = no disease control) ([3]; 200 ppm test suspension)","Test F rating (100 = 100% disease control, 0 = no disease control) (Septoria tritici; 200 ppm test suspension)",other results
COc1cc(OC)cc(-c2c(-c3ccc(F)cc3F)c(C)oc(=O)c2-c2ccccc2)c1 [Compound 27],99%,98%,100%,82%,100%,93%,99%,
COc1cccc(-c2c(-c3ccccc3F)c(C)oc(=O)c2-c2ccccc2)c1 [Compound 28],0%,100%,0%,64%,99%,0%,98%,
COc1cccc(-c2c(-c3ccc(F)cc3F)c(C)oc(=O)c2-c2ccccc2)c1 [Compound 29],64%,99%,93%,55%,100%,32%,99%,
Cc1oc(=O)c(-c2ccccc2)c(-c2ccccc2Cl)c1-c1ccccc1F [Compound 30],,,,,,,,"Test E rating (100 = 100% disease control, 0 = no disease control) (Septoria nodorum; [4]): 0* %; Test A rating (100 = 100% disease control, 0 = no disease control) (Botrytis cinerea; [4]): 99* %; Test B rating (100 = 100% disease control, 0 = no disease control) (Alternaria solani; [4]): 0* %; Test I rating (100 = 100% disease control, 0 = no disease control) [1, 4]: 0* %; Test H rating (100 = 100% disease control, 0 = no disease control) [2, 4]: 91* %; Test G rating (100 = 100% disease control, 0 = no disease control) [3, 4]: 0* %; Test F rating (100 = 100% disease control, 0 = no disease control) (Septoria tritici; [4]): 94* %"
Cc1oc(=O)c(-c2ccccc2)c(-c2ccccc2Cl)c1-c1ccc(F)cc1F [Compound 31],,,,0%,,,,"Test E rating (100 = 100% disease control, 0 = no disease control) (Septoria nodorum; [4]): 0* %; Test A rating (100 = 100% disease control, 0 = no disease control) (Botrytis cinerea; [4]): 100* %; Test B rating (100 = 100% disease control, 0 = no disease control) (Alternaria solani; [4]): 0* %; Test H rating (100 = 100% disease control, 0 = no disease control) [2, 4]: 99* %; Test G rating (100 = 100% disease control, 0 = no disease control) [3, 4]: 96* %; Test F rating (100 = 100% disease control, 0 = no disease control) (Septoria tritici; [4]): 98* %"
"COc1cc(OC)cc(-c2c(-c3ccc(F)cc3F)c(C)oc(=O)c2-c2ccccc2F)c1 [Compound 33, 5-(2,4-difluorophenyl)-4-(3,5-dimethoxyphenyl)-3-(2-fluorophenyl)-6-methyl-2H-pyran-2-one]",,,,,,,,"pest or weed control at 40 ppm (Septoria nodorum; Parastagonospora nodorum, 264 h, 40 ppm test suspension (asterisk), read-out: Test E rating (100 = 100% disease control, 0 = no disease control)): 99%; pest or weed control at 200 ppm (Botrytis cinerea; Botrytis cinerea, 120 h, 200 ppm test suspension, read-out: Test A rating (100 = 100% disease control, 0 = no disease control)): 99%; pest or weed control at 200 ppm (Alternaria solani; Alternaria solani, 168 h, 200 ppm test suspension, read-out: Test B rating (100 = 100% disease control, 0 = no disease control)): 100%; pest or weed control at 200 ppm ([1]; Blumeria graminis, 168 h, 200 ppm test suspension, read-out: Test I rating (100 = 100% disease control, 0 = no disease control)): 76%; pest or weed control at 200 ppm ([2]; Puccinia recondita, 168 h, 200 ppm test suspension, read-out: Test H rating (100 = 100% disease control, 0 = no disease control)): 100%; pest or weed control at 200 ppm ([3]; Puccinia recondita, 96 h, 200 ppm test suspension, read-out: Test G rating (100 = 100% disease control, 0 = no disease control)): 99%; pest or weed control at 200 ppm (Septoria tritici; Zymoseptoria tritici, 504 h, 200 ppm test suspension, read-out: Test F rating (100 = 100% disease control, 0 = no disease control)): 98%"
COc1cccc(-c2c(-c3ccc(F)cc3F)c(C)oc(=O)c2-c2ccccc2F)c1 [Compound 34],99%,100%,99%,90%,100%,95%,99%,

# From patent US20120329787A1, “FUNGICIDAL PYRANONES AND OXAZINONES” (E.I. DU PONT DE NEMOURS AND COMPANY, priority 2011, published 2012)
